{"source": "patent US20260373042A1", "about": "“PEPTIDE HAVING ACTIVITY OF IMPROVING STATE OF SKIN, AND USE THEREOF” (CAREGEN CO., LTD., priority 2022, published 2026)", "key": {"HaCaT cells [1]": {"test_system": "HaCaT cells", "experiment": "Proliferation (MTT survival rate) of HaCaT human keratinocytes", "assay_type": "cell-based", "conditions": "50 μM or 100 μM, serum-free DMEM, 72 hours, MTT 540 nm, vs untreated control, FIG. 1B", "method": "(§1) In this example, the aim was to confirm the effect of a peptide according to an example on proliferation of skin cells, by evaluating changes in survival rate of NIH3T3 cells, which are mouse fibroblasts, or HaCaT cells, which are human keratinocytes.\n(§2) Specifically, NIH3T3 cells or HaCaT cells were seeded in a 96-well plate at a density of 5×10^3 cells/well and cultured for 24 hours. Next, the cells were washed once with serum-free DMEM media, and 50 μM or 100 μM of a peptide consisting of an amino acid sequence of SEQ ID NO: 1 was dispensed into 200 μL of the serum-free media, and cultured in a CO2 incubator at 37 °C for 72 hours. Next, the culture was washed twice with PBS, and 0.5 mg/ml of MTT (Sigma, Cat. No.: M2003, USA) solution was dispensed into each well. Next, after being shaded from light, it was cultured in a CO2 incubator at 37 °C for 4 hours. Next, the absorbance at 540 nm was measured. In this example, an untreated group was used as the control group, and a group to which insulin-like growth factor was added (IGF) was used as the positive control group."}, "elastin": {"test_system": "elastin", "experiment": "Expression of elastin in NIH3T3 cells, RT-PCR", "assay_type": "cell-based, mouse", "conditions": "50 μM or 1000 μM, 24 hours, vs untreated control, FIG. 2, 3C", "method": "(§3) In this example, the aim was to confirm the effect of the peptide according to an example on improving endogenous skin aging, including improvement of wrinkles and enhancement of elasticity, etc., by evaluating the expression levels of collagen type 1 (Col1a1), fibronectin, or elastin, which are known components of the dermis.\n(§4) Specifically, NIH3T3 cells were seeded in a 6-well plate at a density of 3×10^5 cells/well and cultured for 24 hours. Next, the cells were washed once with serum-free DMEM media, and 50 μM or 1000 μM of a peptide consisting of an amino acid sequence of SEQ ID NO: 1 was dispensed into 1 mL of the serum-free media, and cultured in a CO2 incubator at 37 °C for 24 hours. Next, the culture was washed twice with PBS, and RNA was isolated from the culture using easy blue (iNtRON, Korea). Using an RT kit (Enzynomics, Korea), 1 μg of the isolated RNA was reverse transcribed to synthesize the respective cDNA. Next, polymerase chain reaction (PCR) was performed using the cDNAs and primers Col1a1, fibronectin, and elastin. Meanwhile, an untreated group was used as a control group, and a group to which TGF-β1 was added (TGF-β1) was used as a positive control group, the nucleotide sequences of the primers used in this example are shown in Table 2 below."}, "NIH3T3 cells [2]": {"test_system": "NIH3T3 cells", "experiment": "Proliferation (MTT survival rate) of NIH3T3 mouse fibroblasts", "assay_type": "cell-based", "conditions": "50 μM or 100 μM, serum-free DMEM, 72 hours, MTT 540 nm, vs untreated control, FIG. 1A", "method": "as §1, §2"}, "fibronectin": {"test_system": "fibronectin", "experiment": "Expression of fibronectin in NIH3T3 cells, RT-PCR", "assay_type": "cell-based, mouse", "conditions": "50 μM or 1000 μM, 24 hours, vs untreated control, FIG. 2, 3B", "method": "as §3, §4"}, "HaCaT cells [3]": {"test_system": "HaCaT cells", "experiment": "Reactive oxygen species increased by ultraviolet rays in HaCaT cells (DCFH-DA, flow cytometry)", "assay_type": "cell-based, human", "conditions": "50 μM or 1000 μM, UV 15 mJ/cm^2, 24 hours after UV, FIG. 7", "method": "(§5) In this example, the aim was to confirm the effect of the peptide according to an embodiment on the antioxidant effect in damaged skin, by evaluating the change in the level of reactive oxygen species in skin cells increased by ultraviolet irradiation.\n(§6) Specifically, NIH3T3 cells or HaCaT cells were seeded in a 6-well plate at a density of 5×10^5 cells/well and cultured for 24 hours. Next, the cells were washed once with serum-free DMEM media, and 50 μM or 1000 μM of a peptide consisting of an amino acid sequence of SEQ ID NO: 1 was dispensed into 1 mL of the serum-free media, and cultured in a CO2 incubator at 37 °C for […]. Next, the above culture was transferred to an e-tube, mixed with 1 ml of PBS, and dispensed into a well plate. Next, using a UV irradiator (VILBER LOURMAT, Cat No.: 3102-BSU, France), 8 J/cm^2 ultraviolet rays were irradiated to NIH3T3 cells, and 15 mJ/cm^2 ultraviolet rays were irradiated to HaCaT cells. Next, the PBS in the well plate was removed, 900 μL of the culture medium in which the peptides were dispensed was added, and the plate was cultured in a CO2 incubator at 37 °C for 24 hours. Next, the culture was treated with DCFH-DA (2′,7′-dichlorofluorescin diacetate), wrapped in foil, and cultured in a CO2 incubator at 37 °C for 30 minutes. […] After washing the centrifuged cells with PBS, fluorescence values were measured through flow cytometry (FACS, BD, USA). […]"}, "NIH3T3 cells [4]": {"test_system": "NIH3T3 cells", "experiment": "Reactive oxygen species increased by ultraviolet rays in NIH3T3 cells (DCFH-DA, flow cytometry)", "assay_type": "cell-based, mouse", "conditions": "50 μM or 1000 μM, UV 8 J/cm^2, 24 hours after UV, FIG. 6", "method": "as §5, §6"}, "Col1a1": {"test_system": "Col1a1", "experiment": "Expression of collagen type 1 (Col1a1) in NIH3T3 cells, RT-PCR", "assay_type": "cell-based, mouse", "conditions": "50 μM or 1000 μM, 24 hours, vs untreated control, FIG. 2, 3A", "method": "as §3, §4"}, "AQP3": {"test_system": "AQP3", "experiment": "Expression of aquaporin-3 (AQP3) in HaCaT cells, RT-PCR", "assay_type": "cell-based, human", "conditions": "50 μM or 1000 μM, 24 hours, vs untreated control, FIG. 4, 5B", "method": "(§7) In this example, the aim was to confirm the effect of the peptides according to an example on strengthening the skin barrier, by evaluating the expression levels of sirtuin-1 (SIRT-1) or aquaporin-3 (AQP3).\n(§8) Specifically, HaCaT cells were seeded in a 6-well plate at a density of 3×10^5 cells/well and cultured for 24 hours. Next, the cells were washed once with serum-free DMEM media, and 50 μM or 1000 μM of a peptide consisting of an amino acid sequence of SEQ ID NO: 1 was dispensed into 1 mL of the serum-free media, and cultured in a CO2 incubator at 37 °C for 24 hours. Next, the culture was washed twice with PBS, and RNA was isolated from the culture using easy blue (iNtRON, Korea). Using an RT kit (Enzynomics, Korea), 1 μg of the isolated RNA was reverse transcribed to synthesize the respective cDNA. Next, polymerase chain reaction was performed using the cDNAs and primers sirtuin-1 and aquaporin-3. Meanwhile, an untreated group was used as a control group, and a group to which EGF was added (EGF) was used as a positive control group, the nucleotide sequences of the primers used in this example are shown in Table 3 below."}, "SIRT-1": {"test_system": "SIRT-1", "experiment": "Expression of sirtuin-1 (SIRT-1) in HaCaT cells, RT-PCR", "assay_type": "cell-based, human", "conditions": "50 μM or 1000 μM, 24 hours, vs untreated control, FIG. 4, 5A", "method": "as §7, §8"}}}
{"substance": "DGWNY [SEQ ID NO: 1]", "values": [{"measurement": "proliferation of keratinocytes", "setting": "HaCaT cells [1]", "value": "promoted"}, {"measurement": "expression of elastin", "setting": "elastin", "value": "increased"}, {"measurement": "proliferation of fibroblasts", "setting": "NIH3T3 cells [2]", "value": "promoted"}, {"measurement": "expression of fibronectin", "setting": "fibronectin", "value": "increased"}, {"measurement": "level of reactive oxygen species in keratinocytes increased by ultraviolet irradiation", "setting": "HaCaT cells [3]", "value": "reduced"}, {"measurement": "level of reactive oxygen species in fibroblasts increased by ultraviolet irradiation", "setting": "NIH3T3 cells [4]", "value": "reduced"}, {"measurement": "expression of Col1a1", "setting": "Col1a1", "value": "increased"}, {"measurement": "expression of AQP3", "setting": "AQP3", "value": "increased"}, {"measurement": "expression of SIRT-1", "setting": "SIRT-1", "value": "increased"}]}
